Laboratory results taken from US10519134B2, “Pyrazole compounds and methods of making and using same” (Lundbeck La Jolla Research Center, Inc., priority 2015, dated 2019).

What was measured:
MAGL [1] = molecular target: T1, MAGL (Homo sapiens, UniProt Q99685); assay: In vitro competitive activity-based protein profiling (human), MAGL gel band; assay type: biochemical
T1 construct: Proteomes (human prefrontal cortex or cell membrane fractions); from tissue; host or cells: human prefrontal cortex (or cell membrane fractions)
T1 sequence (Q99685 1-303): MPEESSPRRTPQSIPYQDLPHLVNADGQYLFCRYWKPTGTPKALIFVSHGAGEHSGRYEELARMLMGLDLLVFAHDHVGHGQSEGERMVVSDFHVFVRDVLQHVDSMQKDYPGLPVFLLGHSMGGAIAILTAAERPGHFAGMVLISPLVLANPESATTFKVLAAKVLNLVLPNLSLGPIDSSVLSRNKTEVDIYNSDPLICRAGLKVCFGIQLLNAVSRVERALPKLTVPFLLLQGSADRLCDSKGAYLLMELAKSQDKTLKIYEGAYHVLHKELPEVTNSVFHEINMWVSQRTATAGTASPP
In short: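 Human prefrontal cortex or cell membrane proteomes (1.0-2.0 mg/mL protein) preincubated with inhibitors 30 min at 37° C, then labelled with FP-Rh or JW912 probe 30 min at room temperature. Residual MAGL activity read as fluorescent gel-band intensity after SDS-PAGE.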

MAGL [2] = molecular target: T2, MAGL (Mus musculus, UniProt O35678); assay: Mouse brain proteomes from inhibitor treated mice (oral gavage, sacrificed 4 h after administration); assay type: in vivo; conditions: read-out: MAGL % inh. 5 mg/kg
T2 construct: Proteomes (mouse brain membrane fraction or cell lysates); from tissue; host or cells: mouse brain membrane fraction (or cell lysates)
T2 sequence (O35678 1-303): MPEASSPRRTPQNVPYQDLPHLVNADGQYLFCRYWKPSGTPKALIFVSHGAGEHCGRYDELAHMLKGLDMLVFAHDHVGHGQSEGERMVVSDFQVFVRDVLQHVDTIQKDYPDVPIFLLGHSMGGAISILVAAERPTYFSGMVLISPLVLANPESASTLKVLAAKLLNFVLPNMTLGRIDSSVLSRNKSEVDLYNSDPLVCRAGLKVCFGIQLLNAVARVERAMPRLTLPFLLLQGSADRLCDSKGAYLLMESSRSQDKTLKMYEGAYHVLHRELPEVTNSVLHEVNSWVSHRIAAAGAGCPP
In short: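 Wild-type C57Bl/6J mice got compound by oral gavage in polyethylene glycol vehicle. Brain proteomes were prepared 4 h after dosing and analyzed for serine hydrolase activity.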

FAAH = molecular target: T3, FAAH (Mus musculus, UniProt O08914); assay: In vitro competitive activity-based protein profiling (mouse), FAAH gel band; assay type: biochemical; conditions: for IC50: mouse; for inhibition at 1 µM: read-out: FAAH % inh. 1 μM
T3 construct: Proteomes (mouse brain membrane fraction or cell lysates); from tissue; host or cells: mouse brain membrane fraction (or cell lysates)
T3 sequence (O08914 1-579): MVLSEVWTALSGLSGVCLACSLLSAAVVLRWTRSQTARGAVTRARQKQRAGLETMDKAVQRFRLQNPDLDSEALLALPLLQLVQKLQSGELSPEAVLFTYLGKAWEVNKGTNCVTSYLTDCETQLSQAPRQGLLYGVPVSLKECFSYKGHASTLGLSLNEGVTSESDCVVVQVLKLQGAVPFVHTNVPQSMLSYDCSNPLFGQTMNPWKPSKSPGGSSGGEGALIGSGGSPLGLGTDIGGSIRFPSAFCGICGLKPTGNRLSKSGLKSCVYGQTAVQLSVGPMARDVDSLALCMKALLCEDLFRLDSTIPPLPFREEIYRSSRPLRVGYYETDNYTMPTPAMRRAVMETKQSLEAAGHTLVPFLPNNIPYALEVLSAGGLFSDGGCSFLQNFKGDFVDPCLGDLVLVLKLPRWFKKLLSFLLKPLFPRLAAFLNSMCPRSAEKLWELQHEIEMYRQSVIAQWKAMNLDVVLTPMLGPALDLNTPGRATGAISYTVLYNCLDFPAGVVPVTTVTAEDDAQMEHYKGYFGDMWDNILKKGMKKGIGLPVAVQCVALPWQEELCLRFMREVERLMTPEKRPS
In short: (§1)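 Residual enzyme activity is taken from in-gel fluorescence after SDS-PAGE. Proteome from mouse brain membranes or cell lysates (total protein 1.0 mg/mL) sees inhibitor for 30 min, then FP-Rh or HT-01 probe (50 μM DMSO stock) for 30 min, both steps at 37 °C.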

MAGL [3] = molecular target: T2, MAGL; assay: In vitro competitive activity-based protein profiling (mouse), MAGL gel band; assay type: biochemical; conditions: for IC50: mouse; for inhibition at 1 µM: read-out: MAGL % inh. 1 μM
In short: as §1

Compound	IC50 (MAGL [1])	inhibition at 5 mg/kg (MAGL [2])	IC50 (FAAH)	inhibition at 1 µM (FAAH)	IC50 (MAGL [3])	inhibition at 1 µM (MAGL [3])	inhibition at 1 µM (MAGL [1]; at 1 μM, read-out: MAGL human % inh at 1 μM)
CC(=O)Nc1ccn(C(=O)N2CCN(Cc3ccc(C(F)(F)F)cc3N3CCC4(CCOCC4)C3)CC2)n1 [Example 45, N-(1-(4-(2-(8-oxa-2-azaspiro[4.5]decan-2-yl)-4-(trifluoromethyl)benzyl)piperazine-1-carbonyl)-1H-pyrazol-3-yl)acetamide]	0.1 to 1 µM	0 to 25%	1 to 10 µM	0 to 25%	≤ 0.1 µM	≥ 75%	–
CC(=O)NC1CCN(c2cc(C(F)(F)F)ccc2CN2CCN(C(=O)n3ccc(NS(C)(=O)=O)n3)CC2)CC1 [Example 269, N-(1-(2-((4-(3-(methylsulfonamido)-1H-pyrazole-1-carbonyl)piperazin-1-yl)methyl)-5-(trifluoromethyl)phenyl)piperidin-4-yl)acetamide]	≤ 0.1 µM	–	1 to 10 µM	0 to 25%	≤ 0.1 µM	≥ 75%	–
CC(C)(O)C1CCN(c2cc(C(F)(F)F)ccc2CN2CCN(C(=O)n3ccc(NS(C)(=O)=O)n3)CC2)CC1 [Example 270, N-(1-(4-(2-(4-(2-hydroxypropan-2-yl)piperidin-1-yl)-4-(trifluoromethyl)benzyl)piperazine-1-carbonyl)-1H-pyrazol-3-yl) methanesulfonamide]	≤ 0.1 µM	–	1 to 10 µM	0 to 25%	≤ 0.1 µM	≥ 75%	–
CS(=O)(=O)Nc1ccn(C(=O)N2CCN(Cc3ccc(C(F)(F)F)c(N4CCC(F)CC4)c3)CC2)n1 [Example 271, N-(1-(4-(3-(4-fluoropiperidin-1-yl)-4-(trifluoromethyl)benzyl)piperazine-1-carbonyl)-1H-pyrazol-3-yl) methanesulfonamide]	≤ 0.1 µM	–	–	0 to 25%	–	≥ 75%	–
CC(=O)Nc1ccn(C(=O)N2CCN(Cc3ccc(C(F)(F)F)cc3C3CCN(CC(=O)O)CC3)CC2)n1 [Example 285, 2-(4-(2-((4-(3-acetamido-1H-pyrazole-1-carbonyl)piperazin-1-yl)methyl)-5-(trifluoromethyl)phenyl)piperidin-1-yl)acetic acid]	≤ 0.1 µM	–	–	0 to 25%	–	≥ 75%	–
CS(=O)(=O)Nc1ccn(C(=O)N2CCN(Cc3ccc(C(F)(F)F)c(N4CCN5CCC[C@H]5C4)c3)CC2)n1 [Example 287, (S)-N-(1-(4-(3-(hexahydropyrrolo[1,2-a]pyrazin-2(1H)-yl)-4-(trifluoromethyl)benzyl)piperazine-1-carbonyl)-1H-pyrazol-3-yl) methanesulfonamide]	≤ 0.1 µM	–	–	0 to 25%	–	≥ 75%	–
CS(=O)(=O)Nc1ccn(C(=O)N2CCN(Cc3ccc(C(F)(F)F)c(N4CCC(O)CC4)c3)CC2)n1 [Example 289, N-(1-(4-(3-(4-hydroxypiperidin-1-yl)-4-(trifluoromethyl)benzyl)piperazine-1-carbonyl)-1H-pyrazol-3-yl) methanesulfonamide]	≤ 0.1 µM	–	–	0 to 25%	–	≥ 75%	–
CS(=O)(=O)Nc1ccn(C(=O)N2CCN(Cc3ccc(C(F)(F)F)c(N4CCC(C(N)=O)CC4)c3)CC2)n1 [Example 291, 1-(5-((4-(3-(methylsulfonamido)-1H-pyrazole-1-carbonyl)piperazin-1-yl)methyl)-2-(trifluoromethyl)phenyl)piperidine-4-carboxamide]	–	–	–	0 to 25%	–	0 to 25%	25%
CS(=O)(=O)Nc1ccn(C(=O)N2CCN(Cc3ccc(Cl)c(N4CC[C@H](O)C4)c3)CC2)n1 [Example 292, (S)-N-(1-(4-(4-chloro-3-(3-hydroxypyrrolidin-1-yl)benzyl)piperazine-1-carbonyl)-1H-pyrazol-3-yl) methanesulfonamide]	≤ 0.1 µM	–	–	0 to 25%	–	≥ 75%	–
CS(=O)(=O)Nc1ccn(C(=O)N2CCN(Cc3ccc(Cl)c(N4CC[C@@H](O)C4)c3)CC2)n1 [Example 293, (R)-N-(1-(4-(4-chloro-3-(3-hydroxypyrrolidin-1-yl)benzyl)piperazine-1-carbonyl)-1H-pyrazol-3-yl) methanesulfonamide]	≤ 0.1 µM	–	–	0 to 25%	–	≥ 75%	–

Next, values leading:

IC50 (MAGL [1])	inhibition at 5 mg/kg (MAGL [2])	IC50 (FAAH)	inhibition at 1 µM (FAAH)	IC50 (MAGL [3])	inhibition at 1 µM (MAGL [3])	inhibition at 1 µM (MAGL [1]; at 1 μM, read-out: MAGL human % inh at 1 μM)	Compound
≤ 0.1 µM	0 to 25%	1 to 10 µM	0 to 25%	≤ 0.1 µM	≥ 75%	–	CC(=O)Nc1ccn(C(=O)N2CCN(Cc3ccc(Cl)cc3N3CCN(S(C)(=O)=O)CC3)CC2)n1 [Example 52, N-(1-(4-(4-chloro-2-(4-(methylsulfonyl)piperazin-1-yl)benzyl)piperazine-1-carbonyl)-1H-pyrazol-3-yl)acetamide]
≤ 0.1 µM	≥ 75%	1 to 10 µM	0 to 25%	≤ 0.1 µM	≥ 75%	–	CC(=O)Nc1ccn(C(=O)N2CCC3(CCCN3Cc3ccc(Cl)c(C)c3)CC2)n1 [Example 94, N-(1-(1-(4-chloro-3-methylbenzyl)-1,8-diazaspiro[4.5]decane-8-carbonyl)-1H-pyrazol-3-yl)acetamide]
≤ 0.1 µM	≥ 75%	1 to 10 µM	0 to 25%	≤ 0.1 µM	≥ 75%	–	CC(=O)Nc1ccn(C(=O)N2CCC3(CCCN3Cc3ccc(C)c(Cl)c3)CC2)n1 [Example 96, N-(1-(1-(3-chloro-4-methylbenzyl)-1,8-diazaspiro[4.5]decane-8-carbonyl)-1H-pyrazol-3-yl)acetamide]
≤ 0.1 µM	–	–	0 to 25%	–	≥ 75%	–	Cc1cc(CN2CCCC23CCN(C(=O)n2ccc(NC(=O)C(F)F)n2)CC3)ccc1Cl [Example 257, N-(1-(1-(4-chloro-3-methylbenzyl)-1,8-diazaspiro[4.5]decane-8-carbonyl)-1H-pyrazol-3-yl)-2,2-difluoroacetamide]
≤ 0.1 µM	–	1 to 10 µM	0 to 25%	≤ 0.1 µM	≥ 75%	–	CC(=O)Nc1ccn(C(=O)N2CCN(Cc3ccc(C(F)(F)F)cc3N3CCC(C(C)(C)O)CC3)CC2)n1 [Example 266, N-(1-(4-(2-(4-(2-hydroxypropan-2-yl)piperidin-1-yl)-4-(trifluoromethyl)benzyl)piperazine-1-carbonyl)-1H-pyrazol-3-yl)acetamide]
≤ 0.1 µM	–	1 to 10 µM	0 to 25%	≤ 0.1 µM	≥ 75%	–	CC(=O)Nc1ccn(C(=O)N2CCN(Cc3ccc(C(F)(F)F)cc3N3CCN4CCC[C@H]4C3)CC2)n1 [Example 267, (S)-N-(1-(4-(2-(hexahydropyrrolo[1,2-a]pyrazin-2(1H)-yl)-4-(trifluoromethyl)benzyl)piperazine-1-carbonyl)-1H-pyrazol-3-yl)acetamide]
≤ 0.1 µM	–	1 to 10 µM	0 to 25%	≤ 0.1 µM	≥ 75%	–	CC(=O)Nc1ccn(C(=O)N2CCN(Cc3ccc(C(F)(F)F)cc3N3CCN4CCC[C@@H]4C3)CC2)n1 [Example 268, (R)-N-(1-(4-(2-(hexahydropyrrolo[1,2-a]pyrazin-2(1H)-yl)-4-(trifluoromethyl)benzyl)piperazine-1-carbonyl)-1H-pyrazol-3-yl)acetamide]
